# PubChem BioAssay AID1418 (Emory University Molecular Libraries Screening Center, 2008)
# Activity calls are given as the source filed them. No rule for the calls is given here.
# Target: Induced myeloid leukemia cell differentiation protein Mcl-1 (Homo sapiens) (UniProt Q07820)
# Assay: blockers of Bid binding to Mcl-1 – biochemical, TR-FRET, dose response (AID 1418)
# Conditions: Mcl-1/Bid peptide binding, TR-FRET (europium/Dy647), 2 hr
# Induced myeloid leukemia cell differentiation protein Mcl-1 (Homo sapiens), sequence (Q07820 whole entry, looked up): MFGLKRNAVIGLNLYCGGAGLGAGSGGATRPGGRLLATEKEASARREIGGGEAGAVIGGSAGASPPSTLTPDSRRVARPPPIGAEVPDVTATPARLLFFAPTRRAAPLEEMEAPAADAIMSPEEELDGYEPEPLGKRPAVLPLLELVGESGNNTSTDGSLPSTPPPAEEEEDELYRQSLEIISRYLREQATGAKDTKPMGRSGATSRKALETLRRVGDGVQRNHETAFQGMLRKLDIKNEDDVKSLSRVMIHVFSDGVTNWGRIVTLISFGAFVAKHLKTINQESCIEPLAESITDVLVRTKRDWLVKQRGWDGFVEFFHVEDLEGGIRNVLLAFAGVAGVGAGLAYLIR
row,Compound,IC50
1,O=C(CC(C(=O)O)c1c[nH]c2ccccc12)c1ccccc1 (stereo not given),> 54 µM (inactive)
2,COc1ccc(OC)c(-n2c(N)c(C(=O)NCC3CCCO3)c3nc4ccccc4nc32)c1 (stereo not given),> 54 µM (inactive)
3,O=[N+]([O-])c1cc(Cl)cc(/C=N\Nc2ccccn2)c1O,9.24 µM
4,COC(=O)c1cc(NC(=S)NCc2ccc(Cl)cc2)cc(C(=O)OC)c1,> 54 µM (inactive)
5,O=c1c2cnn(-c3ccccc3)c2nc(-c2cccs2)n1-c1cccc(Cl)c1,> 54 µM (inactive)
6,NS(=O)(=O)c1cc2c(cc1Cl)NC(Cc1ccccc1)NS2(=O)=O (stereo not given),> 54 µM (inactive)
7,CC(=O)c1cccc(NC(=O)C2CCN(C(=O)c3ccc([N+](=O)[O-])cc3)CC2)c1,> 54 µM (inactive)
8,CN(C)S(=O)(=O)c1cccc(NC(=O)c2cc3c(=O)n4ccccc4nc3s2)c1,> 54 µM (inactive)
9,O=c1[nH]c(O)c(/C=C2/C=CC(c3cc(Cl)ccc3Cl)=N2)c(=O)[nH]1,1.07 µM
10,COC(=O)/C=C1/SC(=Nc2ccc(C)cc2C)NC1=O,> 54 µM (inactive)
11,CC1(C)CC(=O)C2=C(C1)OC(N)=C(C#N)C2c1cccc(OC(=O)c2ccco2)c1 (stereo not given),> 54 µM (inactive)
12,O=C(CCCN1C(=O)c2ccccc2C1=O)NCCCn1ccnc1,> 54 µM (inactive)
13,O=[N+]([O-])c1cc(Br)c(O)c(/C=N/Nc2nnnn2-c2cccc3ccccc23)c1,13.9 µM
14,Cc1n[nH]c(=S)c2nn(-c3ccccc3)c(C)c12,> 54 µM (inactive)
15,COc1cc2[nH]c(=S)n(N(C(C)=O)C(C)=O)c(=O)c2cc1OC,> 54 µM (inactive)
16,Cn1c(=O)c2c(nc(Cc3ccc(N)cc3)n2C)n(C)c1=O,> 54 µM (inactive)
17,O=C(CN1C(=O)NC2(CCc3ccccc3C2)C1=O)Nc1ccc(F)cc1 (stereo not given),> 54 µM (inactive)
18,COc1ccc(N2C(=O)CC(S/C(N)=N/N=C/c3ccnc4ccccc34)C2=O)cc1 (stereo not given),> 54 µM (inactive)
19,CCC(C)[C@H](NC(=O)Nc1ccccc1F)C(=O)O (stereo not given in full),> 54 µM (inactive)
20,O=C(CSc1nc2ccccc2c2nc3ccccc3n12)NCc1ccco1,2.5 µM
21,CCOC(=O)c1cc(-c2ccc(/C=C3/C(=O)NC(=O)C(C#N)=C3C)o2)ccc1Cl,0.79 µM
22,CCS(=O)(=O)N1CCN(C(C)CCc2ccccc2)CC1 (stereo not given),> 54 µM (inactive)
23,CC(C)NC(=O)c1ccc(COCC(F)(F)F)cc1,> 54 µM (inactive)
24,Cc1ccc(C(=O)OC2=CC(=O)CC(C)(C)C2)cc1,> 54 µM (inactive)

row,Compound,IC50
1,O=C1CSC(c2cccnc2)N1c1ccc(Cl)cc1 (stereo not given),> 54 µM (inactive)
2,CNC(=O)CN(C1CCCCC1)S(=O)(=O)c1ccc(OC)c(Cl)c1,> 54 µM (inactive)
3,O=C(O)c1ccc(NS(=O)(=O)c2cccc3nsnc23)cc1,> 54 µM (inactive)
4,C#CCOCCOCCOCCNc1nc(N2CCN(C(=O)C(Cc3ccc(O)cc3)n3cc(C(N)CC(C)C)nn3)CC2)nc(N2CCN(C(=O)C(Cc3cc4ccccc4[nH]3)n3cc(C(N)Cc4ccc(O)cc4)nn3)CC2)n1 (stereo not given),> 54 µM (inactive)
5,COc1ccc(-c2csc(/C(C#N)=C\c3ccc(O)c([N+](=O)[O-])c3)n2)cc1OC,> 54 µM (inactive)
6,CCCOc1cccc(CN2CCCCC2c2cccnc2)c1 (stereo not given),> 54 µM (inactive)
7,Cc1ccc(NC(=O)CN2C(=O)S/C(=C/c3ccc(-c4cc(C(=O)O)ccc4C)o3)C2=O)cc1C,2.69 µM
8,N=C1/C(=C/c2cccn2-c2cccc([N+](=O)[O-])c2)C(=O)N=C2SC=CN12,12.5 µM
9,CCN1/C(=C/C=C/c2oc3ccc4ccccc4c3[n+]2CC)Oc2ccc3ccccc3c21,0.58 µM
10,CC(C)n1c(SCC(=O)Nc2ccc3c(c2)OCO3)nc2c1c(=O)n(C)c(=O)n2C,> 54 µM (inactive)
11,CC(Cc1ccccc1)NCC(=O)Nc1cc(N(C)C)nc2ccccc12 (stereo not given),> 54 µM (inactive)
12,O=c1cc(-c2ccc([N+](=O)[O-])cc2)nc2cc(-c3ccc(Cl)cc3)[nH]n12,4.96 µM
13,COc1cccc(Nc2nc(NCC3CCCO3)c3ccccc3n2)c1 (stereo not given),> 54 µM (inactive)
14,O=C(N/N=C/c1ccco1)c1ccc(N2CCCC2=O)cc1,> 54 µM (inactive)
15,CN(CCO)S(=O)(=O)c1ccc2c(c1)C(=NO)c1cc(S(=O)(=O)N(C)CCO)ccc1-2,> 54 µM (inactive)
16,Cc1cccc(N(CC(=O)Nc2c(C)n(C)n(-c3ccccc3)c2=O)S(C)(=O)=O)c1,> 54 µM (inactive)
17,Cc1ccc(CNC(=O)c2ccc3nc4[nH]c5ccccc5c4nc3c2)cc1,6.82 µM
18,CC(C)(C)CC(=O)O/N=C(\N)c1ccccn1,> 54 µM (inactive)
19,CC1(C)Cc2cccc(OCC(=O)OCC(=O)Nc3cccc(S(N)(=O)=O)c3)c2O1,> 54 µM (inactive)
20,COC(=O)c1ccccc1S(=O)(=O)N1CCn2cccc2C1C (stereo not given),> 54 µM (inactive)
21,CC1(C(=O)NNC(=O)C2CCCCC2)CC1(Cl)Cl (stereo not given),> 54 µM (inactive)
22,CC(C)C(C(=O)O)N1C(=O)/C(=C/C=C/c2ccco2)SC1=S (stereo not given),2.35 µM
23,CCN(CC)c1ccc(CNc2nc3ccccc3n2C)cc1,> 54 µM (inactive)
24,O=C(Nc1ccc(F)cc1)N1CCCN(c2ccc(C(F)(F)F)cn2)CC1,> 54 µM (inactive)

row,Compound,IC50
1,COc1ccccc1NS(=O)(=O)c1cccc(NC(=O)C2CC(=O)N(Cc3ccccc3)C2)c1 (stereo not given),> 54 µM (inactive)
2,Cc1nn(-c2ccccc2C(=O)O)c(=O)c2ccccc12,> 54 µM (inactive)
3,COc1cccc(NC(=O)C2c3cc(OC)c(OC)cc3C(=O)N(C)C2c2cccnc2)c1 (stereo not given),> 54 µM (inactive)
4,NC(=O)NC(CC(=O)NCCc1ccc(S(N)(=O)=O)cc1)c1ccc(Cl)cc1 (stereo not given),> 54 µM (inactive)
5,O=C(NC(=S)NCc1cccnc1)c1ccc([N+](=O)[O-])cc1,> 54 µM (inactive)
6,O=C(C1=C[C@@H](c2csc3ccccc23)C[C@@H](OCc2ccc(CO)cc2)O1)N1CCN(Cc2ccc3c(c2)OCO3)CC1,> 54 µM (inactive)
7,O=C(O)c1cc(N2N=C(C(F)(F)F)/C(=C/C=C/c3ccco3)C2=O)ccc1Cl,1.4 µM
8,Cc1ccc(N2C(=O)CC(Cn3nc(C)cc3C)C2=O)cc1 (stereo not given),> 54 µM (inactive)
9,O=C(CP(=O)(c1ccccc1)c1ccccc1)Nc1nc2ccc(Cl)cc2s1,> 54 µM (inactive)
10,O=C(O)CCCN1C(=O)/C(=C/c2cn(-c3ccccc3)nc2-c2cccs2)SC1=S,6.58 µM
11,CN1C(=O)C(=Cc2sc(=O)n(-c3ccccc3)c2N2CCCCC2)C(=O)N(C)C1=O,> 54 µM (inactive)
12,COc1cccc(CNC(=O)C2CCN(S(=O)(=O)N3CCCCC3)CC2)c1,> 54 µM (inactive)
13,CCCCOc1ccc(C(=O)NCCC(=O)NCCCC(=O)OCC)cc1,> 54 µM (inactive)
14,CCCCCCn1c(O)c(C=NCCN2CCOCC2)c(=O)[nH]c1=O,> 54 µM (inactive)
15,O=C(N/N=C/c1ccc([N+](=O)[O-])o1)c1cc2c(ccc3ccccc32)o1,1.71 µM
16,COC(=O)c1c(NC(=O)c2cnccn2)sc2c1CCC2,> 54 µM (inactive)
17,CCS(=O)(=O)NCc1ccc2c(c1)cc(C)n2C,> 54 µM (inactive)
18,CCN1C(=O)/C(=C\c2ccc(-c3ccc([N+](=O)[O-])cc3OC)o2)SC1=Nc1cccc(C(=O)O)c1,> 54 µM (inactive)
19,CCOC(=O)C1CCCN(Cc2ccccc2OCC)C1 (stereo not given),> 54 µM (inactive)
20,Cn1c(CSc2nc3ccccc3s2)nnc1SCC(=O)NCc1cccnc1,> 54 µM (inactive)
21,Cc1[nH]n2c(=O)c3c(nc2c1-c1ccc(F)cc1)CCCC3,> 54 µM (inactive)
22,CCC(CC)NC(=O)COC(=O)c1cc(Br)ccc1Cl,> 54 µM (inactive)
23,Cc1csc(NC(=O)C2CCN(S(=O)(=O)c3cccs3)CC2)n1,> 54 µM (inactive)
24,CC1(c2ccccc2)CC(C)(C)N2C(=O)/C(=C3\SC(=S)NC3=O)c3cccc1c32 (stereo not given),2.16 µM

row,Compound,IC50
1,O=C(CCC(=O)c1ccc(Oc2ccccc2)cc1)Nc1cccc(Cl)c1,> 54 µM (inactive)
2,COc1cc2nc(N3CCN(C(=O)c4ccco4)CC3)nc(N)c2cc1OC,> 54 µM (inactive)
3,COc1cccc(CNc2nc3ccc(C)cc3n3cnnc23)c1,> 54 µM (inactive)
4,O=C(CSc1nnc(-c2ccncc2)o1)NCc1ccccc1Cl,> 54 µM (inactive)
5,O=C(COc1ccccc1)N1CCN(Cc2c[nH]c3ccccc23)CC1,> 54 µM (inactive)
6,O=C1NC(CCc2ccccc2)C(=O)N1Cc1ccccc1Cl (stereo not given),> 54 µM (inactive)
7,O=C(Nc1ccc(S(=O)(=O)Nc2nccs2)cc1)c1cc(-c2ccccc2Cl)nc2ccccc12,> 54 µM (inactive)
8,Cc1ccc(-c2nc(N3CCOCC3)sc2C(=O)N2CCCCC2)cc1,> 54 µM (inactive)
9,CCOC(=O)c1ccccc1NC(=O)c1nc2nccc(C)n2n1,> 54 µM (inactive)
10,O=C(C[n+]1cc(-c2ccccc2)n2c1CCC2)N1c2ccccc2Sc2ccccc21,> 54 µM (inactive)
11,Fc1cc(F)c2nc(Nc3nc4cc5c(cc4s3)OCO5)sc2c1,0.59 µM
12,O=C(COc1ccc(S(=O)(=O)N2CCCC2)cc1Cl)NC1CC1,> 54 µM (inactive)
13,COc1ccc(C2c3c(C)nn(-c4ccccc4)c3NC(=O)N2c2ccccc2)cc1 (stereo not given),> 54 µM (inactive)
14,C#CCOCCOCCOCCNc1nc(N2CCN(C(=O)[C@H](CCC(=O)O)n3cc(C(N)CC(C)C)nn3)CC2)nc(N2CCN(C(=O)[C@H](CCC(=O)O)n3cc(C(N)CC(C)C)nn3)CC2)n1 (stereo not given in full),15.2 µM
15,O=C(N/N=C/c1ccc(-c2ccc(Cl)c(C(=O)O)c2)o1)c1cc2c(ccc3ccccc32)o1,8.18 µM
16,COc1cccc(C(=O)Nc2ccc3c(c2)C(=O)c2ccccc2C3=O)c1,2.79 µM
17,Cc1cccc(CN2CCc3c(OCC(=O)NCc4ccco4)cccc3C2=O)c1,> 54 µM (inactive)
18,COc1ccc(C(=O)Nc2cccc(C)c2)cc1S(=O)(=O)N1CCOCC1,> 54 µM (inactive)
19,C=CCC1(/C=N/O)CCOC(C)(C)C1 (stereo not given),> 54 µM (inactive)
20,CCCC(=O)Nc1ccc2oc(-c3cccnc3)nc2c1,> 54 µM (inactive)
21,Cc1cccc(C)c1NC(=O)C1c2ccccc2Oc2ccccc21,> 54 µM (inactive)
22,CC1C(c2ccccc2)N(C)CCC12NC(=O)NC2=O (stereo not given),> 54 µM (inactive)
23,COCCn1cc(C(=O)N2CCC(C)CC2)c2c3ccccc3n(C)c2c1=O,inactive
